For one assay, the target named is EphB4 (Homo sapiens (Human), UniProt P54760). Kind of assay: EphB4 kinase inhibition, 33P phosphoryl transfer assay (radiometric). The class given is biochemical. As for the experimental part:
Phosphorylated substrate products are quantified by scintillation spectrometry.
Kinase activity and compound inhibition are investigated using one or more of the three assay formats described below. The ATP concentrations are selected near its Michaelis-Menten constant (KM) for each individual kinase. Dose-response experiments are performed at ten different inhibitor concentrations in a 384-well plate format. […] These parameters are obtained by nonlinear regression algorithm built into ActivityBase software (available from ID Business Solutions Ltd., of Guildford, Surrey, UK). ^33P Phosphoryl Transfer Assay (Radiometric)
Greiner 384-well white clear bottom high binding plates (available from Greiner Bio-One, Inc., of Longwood, Fla.) are coated with 2 μg/well of protein or peptide substrate in a 50 μL volume overnight at ambient temperature. […] The coating solution is aspirated and the plates are washed once with 50 μL of assay buffer and padded dry. Subsequently compounds and enzymes are mixed with γ ^33P-ATP (3.3 μCi/nmol) in a total volume of 20 uL in suitable assay buffers (see Table 2). For example the final EphB4 reaction solution contains 20 mM TrisHCl, pH 7.5, 10 mM MgCl2, 0.01% Triton X-100, 0.1 mM NaVO3, 5 nM EphB4 enzyme and 5 μM ATP. […] The plates are subsequently washed 6-12 times with PBST or TBS buffer.

For another assay, the target named is EGFR (Homo sapiens (Human), UniProt P00533). Kind of assay: EGFR kinase inhibition, luciferase-coupled chemiluminescent assay (LCCA). To be noted: read-out: EGFR IC50.
The next assay addresses EphA2 (Homo sapiens (Human), UniProt P29317). The experiment in a line: EphA2 kinase inhibition, luciferase-coupled chemiluminescent assay (LCCA). To be noted: read-out: EphA2 IC50.

EphA2, sequence (P29317 598-890): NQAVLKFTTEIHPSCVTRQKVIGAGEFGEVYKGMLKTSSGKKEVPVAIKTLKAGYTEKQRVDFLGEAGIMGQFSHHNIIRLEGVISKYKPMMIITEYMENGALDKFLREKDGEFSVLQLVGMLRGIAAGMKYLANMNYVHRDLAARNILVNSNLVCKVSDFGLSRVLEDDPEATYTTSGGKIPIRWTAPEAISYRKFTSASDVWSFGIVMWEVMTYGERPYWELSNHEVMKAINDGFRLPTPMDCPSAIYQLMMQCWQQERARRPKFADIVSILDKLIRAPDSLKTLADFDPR
EphB4, sequence (P54760 605-890): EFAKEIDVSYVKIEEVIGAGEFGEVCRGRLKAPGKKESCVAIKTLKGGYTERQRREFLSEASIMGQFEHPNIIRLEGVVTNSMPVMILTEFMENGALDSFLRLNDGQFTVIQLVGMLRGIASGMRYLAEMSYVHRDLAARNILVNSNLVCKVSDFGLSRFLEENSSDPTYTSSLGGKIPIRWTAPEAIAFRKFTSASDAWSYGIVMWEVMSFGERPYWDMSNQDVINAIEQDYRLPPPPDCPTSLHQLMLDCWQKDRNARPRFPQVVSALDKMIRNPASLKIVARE
EGFR, sequence (P00533 672-1210): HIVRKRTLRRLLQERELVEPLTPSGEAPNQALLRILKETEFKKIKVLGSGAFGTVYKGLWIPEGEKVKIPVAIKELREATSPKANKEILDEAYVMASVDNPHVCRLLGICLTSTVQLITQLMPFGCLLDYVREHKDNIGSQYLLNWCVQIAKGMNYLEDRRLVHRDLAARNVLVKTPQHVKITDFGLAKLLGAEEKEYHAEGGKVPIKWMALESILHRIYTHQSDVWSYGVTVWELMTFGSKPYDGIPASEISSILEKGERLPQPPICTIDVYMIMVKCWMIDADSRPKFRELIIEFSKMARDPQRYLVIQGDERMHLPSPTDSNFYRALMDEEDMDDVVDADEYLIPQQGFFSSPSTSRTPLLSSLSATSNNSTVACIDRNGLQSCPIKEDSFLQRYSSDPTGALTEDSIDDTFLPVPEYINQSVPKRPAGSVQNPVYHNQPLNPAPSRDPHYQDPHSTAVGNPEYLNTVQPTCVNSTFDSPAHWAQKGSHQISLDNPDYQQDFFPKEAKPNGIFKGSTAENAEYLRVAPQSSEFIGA
Protocol for EGFR: Kinase activity and compound inhibition are investigated using one or more of the three assay formats described below. The ATP concentrations are selected near its Michaelis-Menten constant (KM) for each individual kinase. Dose-response experiments are performed at ten different inhibitor concentrations in a 384-well plate format. […] Typically H is close to unity.
In the LCCA assays, kinase activity is measured by the ATP consumption that is accurately measured by luciferase-coupled chemiluminescence. Greiner 384-well white clear bottom medium binding plates are used for LCCA. Briefly the kinase reaction is initiated by mixing compounds, ATP and kinases in a 20 μL volume. At the end of the kinase reaction, a 20 μL luciferase-luciferin mix is added and the chemiluminescent signal is read on a Wallac Victor^2 reader.

The IC50 is the concentration at which inhibition is half-maximal. With `COc1cc2c(Nc3ccc(Cl)c(Cl)c3)ncnc2cc1OC1CCCC1` [Example 184, 7-(cyclopentyloxy)-N-(3,4-dichlorophenyl)-6-(methyloxy)quinazolin-4-amine], the IC50 was 50 to 1000 nM at EphB4, below 50 nM at EGFR and 1000 to 20000 nM on EphA2.
As for `COc1cc2c(Nc3ccc(Cl)c(Cl)c3)ncnc2cc1OCCC1CCCCC1` [Example 185, 7-[(2-cyclohexylethyl)oxy]-N-(3,4-dichlorophenyl)-6-(methyloxy)quinazolin-4-amine], the IC50 is 50 to 1000 nM against EphB4, below 50 nM on EGFR and 50 to 1000 nM at EphA2.
Regarding `COc1cc2c(Nc3ccc(Cl)c(Cl)c3)ncnc2cc1OCC1CCCCC1` [Example 186, 7-[(cyclohexylmethyl)oxy]-N-(3,4-dichlorophenyl)-6-(methyloxy)quinazolin-4-amine], the values for the IC50 on EphB4, on EGFR and on EphA2 were below 50 nM, below 50 nM and 50 to 1000 nM, respectively.
With `COc1cc2c(Nc3ccc(Cl)c(Cl)c3)ncnc2cc1OCCC1OCCO1` [Example 188, N-(3,4-dichlorophenyl)-7-{[2-(1,3-dioxolan-2-yl)ethyl]oxy}-6-(methyloxy)quinazolin-4-amine], the IC50 on EphB4 is 50 to 1000 nM; at EGFR it was below 50 nM; on EphA2, 50 to 1000 nM.
Take `COc1cc2c(Nc3ccc(Cl)c(Cl)c3)ncnc2cc1OCCC1OCCCO1` [Example 189, N-(3,4-dichlorophenyl)-7-{[2-(1,3-dioxan-2-yl)ethyl]oxy}-6-(methyloxy)quinazolin-4-amine]: the IC50 is 50 to 1000 nM against EphB4, below 50 nM on EGFR and 50 to 1000 nM at EphA2.
With `COc1cc2c(Nc3ccc(Cl)c(Cl)c3)ncnc2cc1OCCN1CCOCC1` [Example 190, N-(3,4-dichlorophenyl)-6-(methyloxy)-7-[(2-morpholin-4-ylethyl)oxy]quinazolin-4-amine], the IC50 is 50 to 1000 nM at EphB4, below 50 nM on EGFR and 50 to 1000 nM at EphA2.
As to `COc1cc2c(Nc3ccc(Cl)c(Cl)c3)ncnc2cc1OCCN1CCCC1` [Example 191, N-(3,4-dichlorophenyl)-6-(methyloxy)-7-[(2-pyrrolidin-1-ylethyl)oxy]quinazolin-4-amine], the IC50 is 50 to 1000 nM at EphB4, below 50 nM on EGFR and 50 to 1000 nM at EphA2.
Turning to `COc1cc2c(Nc3ccc(Cl)c(Cl)c3)ncnc2cc1OCCN1CCCCC1` [Example 192, N-(3,4-dichlorophenyl)-6-(methyloxy)-7-[(2-piperidin-1-ylethyl)oxy]quinazolin-4-amine], the half-inhibitory concentration (IC50) at EphB4 was 50 to 1000 nM; on EGFR, below 50 nM; at EphA2 it was 1000 to 20000 nM.
In the same order, the values of `COc1cc2c(Nc3ccc(Cl)c(Cl)c3)ncnc2cc1OCC(=O)N1CCOCC1` [Example 195, N-(3,4-dichlorophenyl)-6-(methyloxy)-7-[(2-morpholin-4-yl-2-oxoethyl)oxy]quinazolin-4-amine] are 50 to 1000 nM, below 50 nM and 50 to 1000 nM.
In the case of `COc1cc2c(Nc3ccc(Cl)c(Cl)c3)ncnc2cc1OCc1nc(-c2ccc(O)c(C(N)=O)c2)cs1` [Example 200, 5-[2-({[4-[(3,4-dichlorophenyl)amino]-6-(methyloxy)quinazolin-7-yl]oxy}methyl)-1,3-thiazol-4-yl]-2-hydroxybenzamide], the IC50 on EphB4 was 50 to 1000 nM; at EGFR it was below 50 nM; at EphA2, 50 to 1000 nM.
For the compound `COc1cc2c(Nc3ccc(Cl)c(Cl)c3)ncnc2cc1OCc1nc(-c2cccnc2)cs1` [Example 201, N-(3,4-dichlorophenyl)-6-(methyloxy)-7-{[(4-pyridin-3-yl-1,3-thiazol-2-yl)methyl]oxy}quinazolin-4-amine], the IC50 at EphB4 was 50 to 1000 nM; at EGFR, below 50 nM; at EphA2, 50 to 1000 nM.
Turning to `COc1cc2c(Nc3ccc(Cl)c(Cl)c3)ncnc2cc1OCc1nc(N2CCOCC2)no1` [Example 205, N-(3,4-dichlorophenyl)-6-(methyloxy)-7-{[(3-morpholin-4-yl-1,2,4-oxadiazol-5-yl)methyl]oxy}quinazolin-4-amine], the figures for the IC50 at EphB4, on EGFR and at EphA2 were below 50 nM, below 50 nM and 50 to 1000 nM, respectively.
As to `COc1cc2c(Nc3ccc(Cl)c(Cl)c3)ncnc2cc1OCc1nc(N(C)C)no1` [Example 206, N-(3,4-dichlorophenyl)-7-({[3-(dimethylamino)-1,2,4-oxadiazol-5-yl]methyl}oxy)-6-(methyloxy)quinazolin-4-amine], the figures for the IC50 against EphB4, at EGFR and at EphA2 were 50 to 1000 nM, below 50 nM and 50 to 1000 nM, respectively.
Regarding `COc1cc2c(Nc3ccc(Cl)c(Cl)c3)ncnc2cc1OCc1nc2c(s1)CNCC2` [Example 208, N-(3,4-dichlorophenyl)-6-(methyloxy)-7-[(4,5,6,7-tetrahydro[1,3]thiazolo[5,4-c]pyridin-2-ylmethyl)oxy]quinazolin-4-amine], the figures for the IC50 at EphB4, on EGFR and at EphA2 were 50 to 1000 nM, below 50 nM and 50 to 1000 nM, respectively.
`COc1cc2c(Nc3ccc(Cl)c(Cl)c3)ncnc2cc1OCc1nc(CN2CCOCC2)cs1` [Example 209, N-(3,4-dichlorophenyl)-6-(methyloxy)-7-({[4-(morpholin-4-ylmethyl)-1,3-thiazol-2-yl]methyl}oxy)quinazolin-4-amine]: the half-inhibitory concentration (IC50) is below 50 nM at EphB4, below 50 nM at EGFR and 50 to 1000 nM on EphA2.
As to `CCN1CCOC(COc2cc3ncnc(Nc4ccc(Cl)c(Cl)c4)c3cc2OC)C1` (stereo not drawn) [Example 212, N-(3,4-dichlorophenyl)-7-{[(4-ethylmorpholin-2-yl)methyl]oxy}-6-(methyloxy)quinazolin-4-amine], the figures for the IC50 against EphB4, at EGFR and on EphA2 were 50 to 1000 nM, below 50 nM and 50 to 1000 nM, respectively.
For `COc1cc2c(Nc3ccc(Cl)c(Cl)c3)ncnc2cc1OCc1csc(C2CCNCC2)n1` [Example 213, N-(3,4-dichlorophenyl)-6-(methyloxy)-7-{[(2-piperidin-4-yl-1,3-thiazol-4-yl)methyl]oxy}quinazolin-4-amine], the IC50 against EphB4 is below 50 nM; at EGFR, below 50 nM; at EphA2 it was 50 to 1000 nM.
As for `COc1cc2c(Nc3ccc(Cl)c(Cl)c3)ncnc2cc1OCc1csc(C2CCN(C)CC2)n1` [Example 214, N-(3,4-dichlorophenyl)-6-(methyloxy)-7-({[2-(1-methylpiperidin-4-yl)-1,3-thiazol-4-yl]methyl}oxy)quinazolin-4-amine], the IC50 against EphB4 was below 50 nM; at EGFR, below 50 nM; at EphA2, 50 to 1000 nM.
As to `CCN1CCCCC1c1nc(COc2cc3ncnc(Nc4ccc(Cl)c(Cl)c4)c3cc2OC)no1` (stereo not drawn) [Example 219, N-(3,4-dichlorophenyl)-7-({[5-(1-ethylpiperidin-2-yl)-1,2,4-oxadiazol-3-yl]methyl}oxy)-6-(methyloxy)quinazolin-4-amine], the IC50 at EphB4 is 50 to 1000 nM; on EGFR it was below 50 nM; on EphA2, 50 to 1000 nM.
Regarding `CCN1CCN(c2noc(COc3cc4ncnc(Nc5ccc(Cl)c(Cl)c5)c4cc3OC)n2)CC1` [Example 220, N-(3,4-dichlorophenyl)-7-({[3-(4-ethylpiperazin-1-yl)-1,2,4-oxadiazol-5-yl]methyl}oxy)-6-(methyloxy)quinazolin-4-amine], the figures for the half-inhibitory concentration (IC50) against EphB4, on EGFR and on EphA2 were 50 to 1000 nM, below 50 nM and 50 to 1000 nM, respectively.
For `COc1cc2c(Nc3ccc(Cl)c(Cl)c3)ncnc2cc1OCc1csc(-c2ccc(Cl)cc2)n1` [Example 223, 7-({[2-(4-chlorophenyl)-1,3-thiazol-4-yl]methyl}oxy)-N-(3,4-dichlorophenyl)-6-(methyloxy)quinazolin-4-amine], the half-inhibitory concentration (IC50) on EphB4 is 50 to 1000 nM; on EGFR, below 50 nM; on EphA2 it was 50 to 1000 nM.
In the case of `COc1cc2c(Nc3ccc(Cl)c(Cl)c3)ncnc2cc1OCc1noc(-c2c(C)noc2C)n1` [Example 224, N-(3,4-dichlorophenyl)-7-({[5-(3,5-dimethylisoxazol-4-yl)-1,2,4-oxadiazol-3-yl]methyl}oxy)-6-(methyloxy)quinazolin-4-amine], the IC50 is 50 to 1000 nM on EphB4, below 50 nM on EGFR and 50 to 1000 nM at EphA2.
With `COc1cc2c(Nc3ccc(Cl)c(Cl)c3)ncnc2cc1OCc1csc2ccc(Cl)cc12` [Example 225, 7-{[(5-chloro-1-benzothien-3-yl)methyl]oxy}-N-(3,4-dichlorophenyl)-6-(methyloxy)quinazolin-4-amine], the 50% inhibitory concentration (IC50) at EphB4 was 1000 to 20000 nM; at EGFR, below 50 nM; on EphA2 it was 1000 to 20000 nM.
Regarding `COc1cc2c(Nc3ccc(Cl)c(Cl)c3)ncnc2cc1OCc1noc(-c2ccccc2OC)n1` [Example 227, N-(3,4-dichlorophenyl)-6-(methyloxy)-7-[({5-[2-(methyloxy)phenyl]-1,2,4-oxadiazol-3-yl}methyl)oxy]quinazolin-4-amine], the results for the IC50 on EphB4, at EGFR and at EphA2 were below 50 nM, below 50 nM and 50 to 1000 nM, respectively.

The values above are taken from patent US9796704B2, “Substituted quinazolines as receptor-type kinase inhibitors” (Symphony Evolution, Inc., priority 2002, dated 2017).
